# According to PMC9218685, “Legume Plant Peptides as Sources of Novel Antimicrobial Molecules Against Human Pathogens” (Frontiers in Molecular Biosciences, 2022):
# Entries after “also recorded” stand apart in the source; their conditions may differ. Peptide text beside a SMILES is read from it.
# What was measured:
# [1] = test system: C. albicans; assay: Scanning electron microscopy of cell morphology; assay type: cell-based, Candida albicans; details: 30 min treatment, peptide 1.6, 3.125 or 25 µM as in Figure 4 legend
# Procedure: (§1) A. baumannii and C. albicans were grown and treated the same way as for the membrane permeability assay. Cells were then fixed with 2.5% (v/v) glutaraldehyde in phosphate buffered saline (PBS, pH 7.4). 5 μl of the above bacterial and yeast suspensions were spotted on a silicon disk coated with 0.01% Poly-L-Lysine. The filters were washed twice with PBS and gradually dehydrated with ethanol series (30, 50, 70, 80%, and three times 100% ethanol, each for minimum 30 min). The samples were dried with a critical point dryer (K850: Quorum Technologies Ltd.), followed by 12 nm gold coating and observed under a JEOL JSM-7100F/LV scanning electron microscope.
# [2] = test system: E. coli, S. enteritidis, P. aeruginosa, L. monocytogenes, S. aureus, E. faecalis, K. pneumoniae and A. baumannii; assay: Antimicrobial activity assay, spectrum over the eight tested pathogenic bacteria; assay type: cell-based; details: 3 h treatment of ~10^7 log phase bacteria, peptides 25 to 0.8 µM; active = MBC ≤25 µM
# Summary of the method: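 MBC taken as the lowest peptide concentration leaving no viable bacteria after 3 h exposure of ~10^7 log-phase cells. Peptides tested by 2-fold serial dilution, 25 µM down to 0.8 µM, in PPB (pH 7.4). Gram-positive and Gram-negative reference strains from ATCC, NCTC and HNCMO collections.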
# [3] = test system: Lambda DNA/HindIII marker; assay: Gel retardation assay (DNA aggregation); assay type: binding; details: 100 ng DNA, 5 or 10 µM peptide in water, 30 min at room temperature, 1% agarose gel
# Procedure: Interactions of peptides with DNA was visualized with gel retardation assay ([Hsu et al., 2005]). 100 ng Lambda DNA/HindIII marker (ThermoFisher Scientific) was incubated with 0, 5 or 10 µM synthetic NCRs or NCR derivatives in water for 30 min at room temperature and then loaded into 1% agarose gel. Electrophoresis of DNA fragments separated the mobile HindIII-digested DNA fragments while the aggregated DNA remained in the loading wells.
# FIGURE 6 Aggregation of DNA by NCR peptides. Lambda HindIII digested DNA was incubated without (0) or with NCR peptides at 5 or 10 μM concentration.
# [4] = test system: A. baumannii; assay: Scanning electron microscopy of cell morphology; assay type: cell-based, Acinetobacter baumannii; details: 30 min treatment, peptide 1.6 or 3.125 µM as in Figure 3 legend
# Procedure: as §1
# FIGURE 3 Viability, membrane permeability and morphology of A. baumannii cells after NCR treatment (A–L) SYTO9/PI staining observed with confocal microscope, (M–X) Cell morphology observed with SEM. (A,M) untreated control, (B,N) CaNCR13, 3.125 µM, (C,O) CaNCR63, 3.125 µM, (D,P) CaNCR63_1-20, 3.125 µM, (E,Q) CaNCR63_15-34, 3.125 µM, (F,R) MsNCR443, 3.125 µM, (G,S) MsNCR463_16-35, 1.6 µM, (H,T) MsNCR463_17-30, 3.125 µM, (I,U) PsNCR349, 1.6 µM, (J,V) PsNCR349_26-50, 3.125 µM, (K,W) PsNCR349_31-50, 3.125 µM, (L,X) PsNCR352, 1.6 µM.
# [5] = test system: Acinetobacter baumannii (ATCC 17978); assay: microbe, parasite or virus in culture; assay type: cell-based; details: ATCC 17978, 3 h
# Summary of the method: (§2)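 Complete loss of viable bacteria after 3 h defined the MBC. Two-fold peptide series, 25 µM top concentration, ~10^7 log-phase cells in potassium-phosphate buffer pH 7.4.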
# [6] = test system: Klebsiella pneumoniae (NCTC 13440); assay type: cell-based; details: NCTC 13440, 3 h
# Summary of the method: as §2
# [7] = test system: Pseudomonas aeruginosa (ATCC 27853); assay type: cell-based; details: ATCC 27853, 3 h
# Summary of the method: as §2
# [8] = test system: Staphylococcus aureus (HNCMO112011); assay type: cell-based; details: HNCMO112011, 3 h
# Summary of the method: as §2
# [9] = test system: Escherichia coli (ATCC 8739); assay type: cell-based; details: ATCC 8739, 3 h
# Summary of the method: as §2
# [10] = test system: Listeria monocytogenes (ATCC 19111); assay type: cell-based; details: ATCC 19111, 3 h
# Summary of the method: as §2
# [11] = test system: Enterococcus faecalis (ATCC 29212); assay type: cell-based; details: for Ability to kill E. faecalis: 3 h, ~10^7 log phase bacteria, peptides ≤25 µM; for MBC Enterococcus faecalis: ATCC 29212, 3 h
# Summary of the method: as §2
# [12] = test system: Salmonella enterica (ATCC 13076); assay type: cell-based; details: ATCC 13076, 3 h
# Summary of the method: as §2
Structure (SMILES),Morphology of C. albicans cells by SEM [1],Antibacterial spectrum over the eight tested bacterial strains [2],Aggregation of HindIII-digested λ DNA (DNA retained in loading wells) [3],Morphology of A. baumannii cells by SEM [4],MBC Acinetobacter baumannii [5] [µM],MBC Klebsiella pneumoniae [6] [µM],MBC Pseudomonas aeruginosa [7] [µM],MBC Staphylococcus aureus [8] [µM],MBC Escherichia coli [9] [µM],MBC Listeria monocytogenes [10] [µM],Ability to kill E. faecalis [11],MBC Enterococcus faecalis [11] [µM],MBC Salmonella enterica [12] [µM]
CC[C@H](C)[C@H](NC(=O)[C@H](CCCNC(=N)N)NC(=O)[C@@H](NC(=O)[C@H](CS)NC(=O)[C@H](CCCCN)NC(=O)[C@H](CS)NC(=O)[C@H](Cc1ccccc1)NC(=O)CNC(=O)[C@H](CC(N)=O)NC(=O)[C@@H](NC(=O)[C@H](CS)NC(=O)[C@H](CCCCN)NC(=O)[C@@H]1CCCN1C(=O)[C@@H](NC(=O)[C@H](CCCCN)NC(=O)[C@@H]1CCCN1C(=O)[C@H](CCCCN)NC(=O)[C@H](CCCNC(=N)N)NC(=O)[C@H](CS)NC(=O)[C@H](C)NC(=O)[C@H](Cc1ccccc1)NC(=O)[C@H](CCCCN)NC(=O)[C@H](CCCCN)NC(=O)[C@H](CS)NC(=O)[C@H](CC(=O)O)NC(=O)[C@H](CCCCN)NC(=O)[C@H](CC(=O)O)NC(=O)[C@H](CO)NC(=O)[C@H](CCC(N)=O)NC(=O)[C@H](CS)NC(=O)[C@@H]1CCCN1C(=O)[C@@H](N)CCCCN)C(C)C)[C@@H](C)CC)C(C)C)C(=O)N[C@@H](Cc1c[nH]c2ccccc12)C(=O)O [CaNCR13] (H-KPCQSDKDCKKFACRKPKVPKCINGFCKCVRIW-OH; N-terminus assumed),aggregation of shrunken cells in a spider net like matrix,broad-spectrum activity,did not,Only dead cells were visible,–,–,–,–,–,–,–,–,–
CC[C@H](C)[C@H](NC(=O)[C@H](CCC(N)=O)NC(=O)[C@H](CCCCN)NC(=O)[C@H](CCCNC(=N)N)NC(=O)[C@@H](NC(=O)[C@H](Cc1ccccc1)NC(=O)[C@H](Cc1ccccc1)NC(=O)[C@H](Cc1ccc(O)cc1)NC(=O)[C@H](Cc1c[nH]cn1)NC(=O)[C@H](CS)NC(=O)[C@H](Cc1ccccc1)NC(=O)[C@H](CCCCN)NC(=O)CNC(=O)[C@@H](NC(=O)[C@H](CS)NC(=O)[C@H](CCSC)NC(=O)[C@H](CCSC)NC(=O)[C@@H](NC(=O)[C@@H](NC(=O)[C@@H]1CCCN1C(=O)[C@H](CCCCN)NC(=O)[C@@H](NC(=O)[C@@H](NC(=O)[C@H](CCCCN)NC(=O)[C@@H]1CCCN1C(=O)[C@H](CS)NC(=O)[C@H](CC(=O)O)NC(=O)[C@H](CC(=O)O)NC(=O)[C@@H](NC(=O)[C@@H](NC(=O)[C@H](C)NC(=O)[C@H](CS)NC(=O)[C@H](CCCNC(=N)N)NC(=O)[C@@H](NC(=O)[C@H](CC(=O)O)NC(=O)[C@H](CC(C)C)NC(=O)[C@H](CCCCN)NC(=O)[C@@H](N)CCC(=O)O)[C@@H](C)CC)[C@@H](C)O)C(C)C)C(C)C)[C@@H](C)O)C(C)C)C(C)C)[C@@H](C)O)C(C)C)C(=O)N[C@@H](CC(C)C)C(=O)O [NCR073] (H-EKLDIRCATVDDCPKVTKPVVMMCTGKFCHYFFVRKQIL-OH; N-terminus assumed),–,capable of killing all tested bacteria; also recorded: active against all the eight tested pathogens,–,–,1.6,6.25,6.25,6.25,3.125,6.25,able to kill,6.25,6.25
CC[C@H](C)[C@H](N)C(=O)N[C@@H](Cc1ccc(O)cc1)C(=O)N[C@@H](Cc1ccccc1)C(=O)N[C@@H](CCCNC(=N)N)C(=O)N[C@@H](CCCCN)C(=O)N1CCC[C@H]1C(=O)N1CCC[C@H]1C(=O)N1CCC[C@H]1C(=O)N[C@@H](CS)C(=O)N[C@H](C(=O)N[C@H](C(=O)N[C@@H](CC(=O)O)C(=O)N[C@@H](CCCCN)C(=O)N[C@@H](CC(=O)O)C(=O)N[C@@H](CS)C(=O)N1CCC[C@H]1C(=O)N[C@@H](CCC(N)=O)C(=O)N[C@@H](CCSC)C(=O)N[C@@H](CCCCN)C(=O)N[C@H](C(=O)N[C@@H](CC(N)=O)C(=O)N[C@@H](CC(N)=O)C(=O)N[C@H](C(=O)N[C@@H](CCCNC(=N)N)C(=O)N[C@@H](CS)C(=O)N[C@@H](CCCNC(=N)N)C(=O)N[C@@H](CCCCN)C(=O)NCC(=O)N[C@@H](Cc1ccccc1)C(=O)N[C@@H](CS)C(=O)N[C@H](C(=O)N[C@@H](CCC(N)=O)C(=O)N[C@H](C(=O)N[C@@H](Cc1c[nH]cn1)C(=O)N[C@@H](CCCCN)C(=O)N[C@@H](Cc1ccccc1)C(=O)N[C@H](C(=O)N1CCC[C@H]1C(=O)O)[C@@H](C)O)[C@@H](C)CC)[C@@H](C)CC)C(C)C)[C@@H](C)CC)[C@@H](C)O)[C@@H](C)CC [NCR358] (H-IYFRKPPPCITDKDCPQMKINNVRCRKGFCIQIHKFTP-OH; N-terminus assumed),–,capable of killing all tested bacteria; also recorded: active against all the eight tested pathogens,–,–,3.125,25,3.125,3.125,1.6,3.125,able to kill,6.25,3.125
CC[C@H](C)[C@H](NC(=O)[C@H](CC(N)=O)NC(=O)[C@H](Cc1ccc(O)cc1)NC(=O)[C@H](CCCCN)NC(=O)[C@H](CCCCN)NC(=O)[C@H](Cc1ccccc1)NC(=O)[C@H](CCCCN)NC(=O)[C@@H]1CCCN1C(=O)[C@H](CS)NC(=O)[C@H](CC(=O)O)NC(=O)[C@H](CCCCN)NC(=O)[C@H](CC(=O)O)NC(=O)[C@@H](NC(=O)[C@@H](NC(=O)[C@H](CS)NC(=O)[C@H](Cc1ccc(O)cc1)NC(=O)[C@H](CCC(N)=O)NC(=O)[C@H](CCCNC(=N)N)NC(=O)[C@@H](NC(=O)[C@H](CC(C)C)NC(=O)[C@@H]1CCCN1C(=O)[C@H](CC(N)=O)NC(=O)[C@H](Cc1ccccc1)NC(=O)[C@H](CO)NC(=O)[C@@H](N)CC(=O)O)[C@@H](C)CC)C(C)C)[C@@H](C)O)C(=O)N[C@@H](CCCNC(=N)N)C(=O)N[C@@H](CS)C(=O)N[C@@H](CCCNC(=N)N)C(=O)N[C@@H](CCCCN)C(=O)NCC(=O)N[C@@H](Cc1ccccc1)C(=O)N[C@@H](CS)C(=O)N[C@H](C(=O)N[C@@H](CCC(N)=O)C(=O)N[C@H](C(=O)N[C@@H](CC(N)=O)C(=O)NCC(=O)NCC(=O)O)C(C)C)C(C)C [NCR377] (H-DSFNPLIRQYCVTDKDCPKFKKYNIRCRKGFCVQVNGG-OH; N-terminus assumed),–,kill all bacteria except E. faecalis,–,–,6.25,12.5,3.125,6.25,3.125,12.5,–,–,6.25
